How the values were obtained:
Th1 cells = test: Cytokine staining of genipin-treated skewed Th1 cells; assay type: cell-based, Mouse; details: data not shown
Experimental: (§1) Mouse lymph nodes and spleens were harvested, and naïve CD4 or CD8 T cells isolated via magnetic bead separation (STEMCELL Technologies) and activated in α-CD3 (10 μg/ml) and α-CD28 (1 μg/ml) pre-coated 96-well plates. Skewing conditions were as follows: Th1 cells/Tc1 cells ([…] 10 μ/ml α-IL-4), Th2 cells/Tc2 cells (20 ng/ml IL-4 and 10 μ/ml α-IFN-γ), Th17 cells/Tc17 cells (20 ng/ml IL-6, 1.25 ng/ml […], 20 ng/ml IL-1β, 20 ng/ml IL-23, 10 μg/ml α-IFN-γ and 10 μg/ml α-IL-4), and Treg cells (5 ng/ml TGF-β, 10 μg/ml α-IFN-γ and 10 μg/ml α-IL-4) in the indicated medium. Cells were cultured for 4-5 days followed by treatment with genipin (3.125 μM, 6.25 μM, 12.5 μM) or DMSO for 12-16 hours.
(§2) Monoclonal antibodies were purchased from BD Biosciences or eBioscience. For intracellular cytokine staining (ICS), cells were first restimulated by PMA/ionomycin for 5 hours in the presence of GolgiStop (BD Biosciences), followed by surface epitope staining markers before being fixed/permeabilized (BD Cytofix/Cytoperm™) and stained with antibodies targeting intracellular antigens. Cells were finally fixed with 1.5% formaldehyde for 10 minutes at room temperature and analyzed on a FACSVerse flow cytometer (BD Bioscience). Data were analyzed using FlowJo software (Tree Star Inc.).

[1] = tested on: Th2 cells and regulatory T cells (Treg); test: Populations of Th2 cells and Treg cells after genipin; assay type: cell-based, Mouse; details: genipin-treated; data not shown
Experimental: as §1, §2

tumors of PDAC patients = test: Ex vivo genipin treatment of tumors of PDAC patients, flow cytometry; assay type: cell-based, human
Experimental: as §2
PDAC human subject study was approved by the Research Ethics Committee of China Medical University & Hospital (CMUH109-REC2-148). 10 ml of fresh blood and 0.1-0.5 mm^3 of tumor mass were collected on the same day from patients who underwent surgical resection. Monocytes were isolated from the patients' peripheral blood mononuclear cell (PBMC) or tumor mass. Cells were resuspended in RPMI medium containing 10% FBS and seeded at a density of 2×10^5/well in a 12-well plate. Cells were treated with genipin (12.5 μM, 25 μM) and incubated overnight before staining for the flow cytometry analysis.

Pan18 cells = test: Tumorigenicity assay, Pan18 subcutaneous implantation (PDAC-bearing mice); assay type: in vivo
Experimental: as §2
For Pan18-subcutaneous implantation, 5×10^5 Pan18 cells were administered to wild-type (WT) or IL-17^−/− mice. Genipin (5 mg/kg, 10 mg/kg, or 30 mg/kg, i.p., every two days) was administered to Pan18-bearing mice for 3 weeks. For 3036-subcutanous implantation, 2×10^5 3036 cells were administered to WT mice. Genipin (10 mg/kg, i.p., every two days) and recombinant anti-IL-17 receptor antibody (αIL-17RA) (1 mg/kg, i.v., once a week) were administered to 3036-bearing mice for 3 weeks. Tumor volumes were evaluated every 2 days. For the orthotopic tumor modelling, mice pancreases were injected with 2×10^5 Pan18 cells and monitored for tumor growth weekly using IVIS kinetics imaging system (Caliper Life-Sciences). Genipin (10 mg/kg, i.p., every two days) or αIL-17RA (1 mg/kg, i.v., once a week) was administered 1 week after tumor implantation. Mice were sacrificed 35 days after tumor induction and tumors weighed. For spontaneous pancreatic cancer model, Cre-dependent conditional knockin mutations of KrasG12D Kras^+/LSLG12D mice (B6; 129-Kras2) were obtained from the Mouse Models of Human Cancer Consortium. Elas-CreERT; Kras^+/LSLG12D mice was generated by breeding Kras^+/LSLG12D mice with Elas-CreER mice obtained from the Level Transgenic Center. To induce the expression of Kras^+/LSLG12D in acinar cells, 5-week-old Elas-CreERT; Kras^+/LSLG12D male mice were injected with 100 μl of tamoxifen (20 mg/ml, i.p., three times per week) for 1 week. To induce chronic inflammation and tumors, 100 μl of cerulein (50 μg/ml, i.p., six times per week) (BACHEM) was given to the mice for 3 weeks. Then, the mice were injected with genipin (10 mg/kg, i.p., every two days) and αIL-17RA (1 mg/kg, i.v., once a week) until the end of the experiment, and overall survival was monitored. For genetically CD4/CD8-specific UCP2 deletion tumor modelling, we generated CD4Cre×UCP2^f/f mice by crossing loxP-UCP2-loxP mice with CD4Cre mice. CD4Cre×UCP2^f/f, WT, and loxP control mice underwent subcutaneous implantation of 2×10^5 Pan18 cells, followed by treatment with αIL-17RA (1 mg/kg, i.v., once a week) for 3 weeks. For melanoma modelling, IL-17/-and WT mice underwent subcutaneous implantation of 5×10^5 B16F10 cells, followed by treatment with genipin (10 mg/kg, i.p., every two days) for 3 weeks. For CD8 depletion tumor modelling, IL-17^−/− mice underwent subcutaneous implantation of 2×10^5 Pan18 cells, followed by treatment with genipin (10 mg/kg, i.p., every two days) and CD8 neutralizing antibody (5 mg/kg, i.v., once a week) for 3 weeks. Tumor volumes were evaluated every 3 days.
Serum levels of IFN-γ, IL-17, TNF-α, IL-12, IL-6, and TGF-β were measured using commercial enzyme-linked immunosorbent assay (ELISA) kits (BD Biosciences; R&D systems; BioLegend) according to the manufacturer's protocol.
Total protein concentration of the tumor lysates was quantified by a Bradford assay. Tumoral chemokine profiles were determined by analyzing 250 μg protein from the tumor lysates using a Proteome Profiler™ Mouse Chemokine Array Kit (ARY020, R&D Systems) according to the manufacturer's instructions. […]

Th17 cells = test: Cytokine staining of genipin-treated skewed Th17 cells; assay type: cell-based, Mouse; details: data not shown
Experimental: as §1, §2

[2] = IL-17−/− mice, genipin 5 or 10 mg/kg, dose-dependent, FIG. 5C
[3] = IL-17−/− mice, genipin, data not shown
[4] = WT mice, escalating doses of genipin, FIG. 3S

For COC(=O)C1=CO[C@@H](O)[C@@H]2C(CO)=CC[C@H]12 [genipin], the “IFN-γ in Th1 cells” value (Th1 cells) was “increased IFN-γ”, the “Population of Th2 cells” value [1] was “nor significantly altering the populations” and the “Population of regulatory T cells (Treg)” value [1] was “nor significantly altering the populations”. The “Tc1 cells (IFN-γ-producing CD8+ T cells)” value (tumors of PDAC patients; genipin 12.5, 25 μM overnight, FIG. 8C-8D) was “increased Tc1 cells”, the “Th1 cells population (IFN-γ-producing CD4+ T cells)” value (tumors of PDAC patients; genipin overnight, FIG. 8G) was “no significant changes” and the “Th17 cells (IL-17-producing CD4+ T cells)” value (tumors of PDAC patients; genipin overnight, FIG. 8H) was “did not increase”. The “Tumor growth (tumor volume, tumor weight)” value (Pan18 cells; IL-17−/− mice, genipin 5 or 10 mg/kg i.p. every two days, 3 weeks, FIG. 5A-5B) was “synergistic effect to inhibit tumor growth”, the “Serum IFN-γ” value (Pan18 cells; [2]) was “increased” and the “Serum IL-12” value (Pan18 cells; [2]) was “increased”. For the same compound, the “Serum TNF-α” value (Pan18 cells; [2]) was “increased”, the “Numbers of Tc1 cells” value (Pan18 cells; IL-17−/− mice, genipin, FIG. 5D) was “increased numbers of Tc1 cells” and the “Numbers of MDSC” value (Pan18 cells; IL-17−/− mice, genipin, FIG. 5G) was “decreased numbers of MDSC”. For the same compound, the “IL-17-ablation driven change in CCL2 level” value (Pan18 cells; [3]) was “had no effects”, the “IL-17-ablation driven change in CXCL10 level” value (Pan18 cells; [3]) was “had no effects” and the “Absolute numbers of Tc1 cells” value (Pan18 cells; WT mice, escalating doses of genipin i.p. every two days, 3 weeks, FIG. 3A-3C) was “increases in the absolute numbers”. The “Serum IFN-γ” value (Pan18 cells; [4]) was “increased”, the “Serum IL-6” value (Pan18 cells; [4]) was “increased” and the “Serum IL-12” value (Pan18 cells; [4]) was “increased”. For the same compound, the “Serum TNF-α” value (Pan18 cells; [4]) was “increased”, the “Serum IL-17” value (Pan18 cells; WT mice, escalating doses of genipin, end of experiment, FIG. 3S) was “increased” and the “Tumorigenesis (tumor volume, tumor weight)” value (Pan18 cells; WT mice, genipin alone, FIG. 3T-3U) was “did not suppress tumorigenesis”. The “Absolute numbers of Th1 cells” value (Pan18 cells; WT mice, genipin i.p. every two days, 3 weeks, FIG. 3D-3F) was “increases in the absolute numbers”, the “Numbers of Tc17 cells” value (Pan18 cells; WT mice, genipin i.p. every two days, 3 weeks, FIG. 3G-3I) was “increased” and the “Numbers of Th17 cells” value (Pan18 cells; WT mice, genipin i.p. every two days, 3 weeks, FIG. 3J-3L) was “increased”. The “Numbers of Treg cells in the lymph nodes and spleens” value (Pan18 cells; WT mice, genipin i.p., FIG. 3M-3O) was “decreased”, the “Numbers of MDSC in the lymph nodes and spleens” value (Pan18 cells; WT mice, genipin i.p., FIG. 3P-3R) was “decreased” and the “Tumor infiltrating MDSC” value (Pan18 cells; WT mice, genipin i.p., tumor) was “no changes”. For the same compound, the “Tumor infiltrating Tc1 cells” value (Pan18 cells; WT mice, genipin i.p., tumor) was “no changes”, the “Tumor infiltrating Th1 cells” value (Pan18 cells; WT mice, genipin i.p., tumor) was “no changes” and the “IFN-γ in Th17 cells” value (Th17 cells) was “increased IFN-γ”. The “IL-17 expression in Th17 cells” value (Th17 cells) was “without an impact on IL-17 expression”.
